How the values were obtained:
[1] = system: recombinant NL4-3 virus (nef section replaced with Renilla luciferase gene) in MT-2 cells; experiment: HIV cell culture assay (antiviral activity, luciferase readout); assay type: cell-based; conditions: Renilla, NL43, MT-2 cells infected for 4-5 days with recombinant NL4-3 Renilla luciferase virus, serial dilutions of compound
In short: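 Test compound in serial dilution was present while MT-2 cells were infected for 4–5 days with recombinant NL4-3 virus made in 293T cells. Antiviral activity was quantified as Renilla luciferase activity, read with a live-cell substrate. EC50 came from the median-effect equation.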

[2] = Compound cytotoxicity, XTT-based colorimetric assay; assay type: cell-based; conditions: human, uninfected MT2 cells, day 4, XTT
In short: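 Run under the antiviral-assay protocol but without virus. Viability was read on day 4 and CC50 values were derived from the readout.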

## O=C(Cc1ccn(C2CC2)n1)N[C@@H](Cc1cc(F)cc(F)c1)c1nc2cc(-c3ccccc3F)ccc2c(=O)n1-c1ccc(Cl)c2c(NS(=O)(=O)C3CC3)nn(CC(F)F)c12 [Example 139, (S)-N-(1-(3-(4-chloro-3-(cyclopropanesulfonamido)-1-(2,2-difluoroethyl)-1H-indazol-7-yl)-7-(2-fluorophenyl)-4-oxo-3,4-dihydroquinazolin-2-yl)-2-(3,5-difluorophenyl)ethyl)-2-(1-cyclopropyl-1H-pyrazol-3-yl)acetamide]
[1]
  EC50: 0.57 nM
[2]
  CC50 at 4 day: > 500 nM

## CC(C)n1ccc(CC(=O)N[C@@H](Cc2cc(F)cc(F)c2)c2nc3cc(-c4ccccc4F)ccc3c(=O)n2-c2ccc(Cl)c3c(NS(=O)(=O)C4CC4)nn(CC(F)F)c23)n1 [Example 140, (S)-N-(1-(3-(4-chloro-3-(cyclopropanesulfonamido)-1-(2,2-difluoroethyl)-1H-indazol-7-yl)-7-(2-fluorophenyl)-4-oxo-3,4-dihydroquinazolin-2-yl)-2-(3,5-difluorophenyl)ethyl)-2-(1-isopropyl-1H-pyrazol-3-yl)acetamide]
[1]
  EC50: 0.35 nM
[2]
  CC50 at 4 day: > 500 nM

## Cc1cc(C)nc(-c2ccc3c(=O)n(-c4ccc(Cl)c5c(NS(C)(=O)=O)nn(C)c45)c([C@H](Cc4cc(F)cc(F)c4)NC(=O)Cn4nc(C(F)(F)F)c5c4C(F)(F)[C@@H]4C[C@H]54)nc3c2)n1 [Example 141, N-((S)-1-(3-(4-chloro-1-methyl-3-(methylsulfonamido)-1H-indazol-7-yl)-7-(4,6-dimethylpyrimidin-2-yl)-4-oxo-3,4-dihydroquinazolin-2-yl)-2-(3,5-difluorophenyl)ethyl)-2-((3bS,4aR)-5,5-difluoro-3-(trifluoromethyl)-3b,4,4a,5-tetrahydro-1H-cyclopropa[3,4]cyclopenta[1,2-c]pyrazol-1-yl)acetamide]
[1]
  EC50: 0.11 nM
[2]
  CC50 at 4 day: > 500 nM

## COc1ccccc1-c1ccc2c(=O)n(-c3ccc(S(=O)(=O)N4CCOCC4)cc3)c([C@H](Cc3cc(F)cc(F)c3)NC(=O)Cn3ccc(C4CC4)n3)nc2c1 [Example 142, (S)-2-(3-cyclopropyl-1H-pyrazol-1-yl)-N-(2-(3,5-difluorophenyl)-1-(7-(2-methoxyphenyl)-3-(4-(morpholinosulfonyl)phenyl)-4-oxo-3,4-dihydroquinazolin-2-yl)ethyl)acetamide]
[1]
  EC50: 66 nM
[2]
  CC50 at 4 day: > 1000 nM

## Cc1ccccc1-c1ccc2c(=O)n(-c3ccc(S(=O)(=O)N4CCOCC4)cc3)c([C@H](Cc3cc(F)cc(F)c3)NC(=O)Cn3ccc(C4CC4)n3)nc2c1 [Example 143, (S)-2-(3-cyclopropyl-1H-pyrazol-1-yl)-N-(2-(3,5-difluorophenyl)-1-(3-(4-(morpholinosulfonyl)phenyl)-4-oxo-7-(o-tolyl)-3,4-dihydroquinazolin-2-yl)ethyl)acetamide]
[1]
  EC50: 42 nM
[2]
  CC50 at 4 day: > 1000 nM

## O=C(Cn1ccc(C2CC2)n1)N[C@@H](Cc1cc(F)cc(F)c1)c1nc2cc(-c3ccccc3)ccc2c(=O)n1-c1ccc(S(=O)(=O)N2CCOCC2)cc1 [Example 144, (S)-2-(3-cyclopropyl-1H-pyrazol-1-yl)-N-(2-(3,5-difluorophenyl)-1-(3-(4-(morpholinosulfonyl)phenyl)-4-oxo-7-phenyl-3,4-dihydroquinazolin-2-yl)ethyl)acetamide]
[1]
  EC50: 16 nM
[2]
  CC50 at 4 day: > 500 nM

## O=C(Cn1ccc(C2CC2)n1)N[C@@H](Cc1cc(F)cc(F)c1)c1nc2cc(-c3ccccc3Cl)ccc2c(=O)n1-c1ccc(S(=O)(=O)N2CCOCC2)cc1 [Example 145, (S)-N-(1-(7-(2-chlorophenyl)-3-(4-(morpholinosulfonyl)phenyl)-4-oxo-3,4-dihydroquinazolin-2-yl)-2-(3,5-difluorophenyl)ethyl)-2-(3-cyclopropyl-1H-pyrazol-1-yl)acetamide]
[1]
  EC50: 16 nM
[2]
  CC50 at 4 day: > 500 nM

## O=C(Cn1ccc(C2CC2)n1)N[C@@H](Cc1cc(F)cc(F)c1)c1nc2cc(-c3ccccc3-c3ccccc3)ccc2c(=O)n1-c1ccc(S(=O)(=O)N2CCOCC2)cc1 [Example 146, (S)-N-(1-(7-([1,1′-biphenyl]-2-yl)-3-(4-(morpholinosulfonyl)phenyl)-4-oxo-3,4-dihydroquinazolin-2-yl)-2-(3,5-difluorophenyl)ethyl)-2-(3-cyclopropyl-1H-pyrazol-1-yl)acetamide]
[1]
  EC50: 69 nM
[2]
  CC50 at 4 day: > 500 nM

## O=C(Cn1ccc(C2CC2)n1)N[C@@H](Cc1cc(F)cc(F)c1)c1nc2cc(-c3cccc(-c4ccccc4)c3)ccc2c(=O)n1-c1ccc(S(=O)(=O)N2CCOCC2)cc1 [Example 147, (S)-N-(1-(7-([1,1′-biphenyl]-3-yl)-3-(4-(morpholinosulfonyl)phenyl)-4-oxo-3,4-dihydroquinazolin-2-yl)-2-(3,5-difluorophenyl)ethyl)-2-(3-cyclopropyl-1H-pyrazol-1-yl)acetamide]
[1]
  EC50: 121 nM
[2]
  CC50 at 4 day: > 1000 nM

## O=C(Cn1ccc(C2CC2)n1)N[C@@H](Cc1cc(F)cc(F)c1)c1nc2cc(-c3ccc(-c4ccccc4)cc3)ccc2c(=O)n1-c1ccc(S(=O)(=O)N2CCOCC2)cc1 [Example 148, (S)-N-(1-(7-([1,1′-biphenyl]-4-yl)-3-(4-(morpholinosulfonyl)phenyl)-4-oxo-3,4-dihydroquinazolin-2-yl)-2-(3,5-difluorophenyl)ethyl)-2-(3-cyclopropyl-1H-pyrazol-1-yl)acetamide]
[1]
  EC50: 71 nM
[2]
  CC50 at 4 day: > 500 nM

## O=C(Cn1nc(C(F)F)c2c1C(F)(F)[C@@H]1C[C@H]21)N[C@@H](Cc1cc(F)cc(F)c1)c1nc2cc(-c3cccc(F)c3F)ccc2c(=O)n1-c1ccc(S(=O)(=O)N2CCOCC2)cc1 [Example 149, 2-((3bS,4aR)-3-(difluoromethyl)-5,5-difluoro-3b,4,4a,5-tetrahydro-1H-cyclopropa[3,4]cyclopenta[1,2-c]pyrazol-1-yl)-N-((S)-2-(3,5-difluorophenyl)-1-(7-(2,3-difluorophenyl)-3-(4-(morpholinosulfonyl)phenyl)-4-oxo-3,4-dihydroquinazolin-2-yl)ethyl)acetamide]
[1]
  EC50: 8.1 nM
[2]
  CC50 at 4 day: > 1000 nM

## Cc1cc(F)ccc1-c1ccc2c(=O)n(-c3ccc(S(=O)(=O)N4CCOCC4)cc3)c([C@H](Cc3cc(F)cc(F)c3)NC(=O)Cn3nc(C(F)F)c4c3C(F)(F)[C@@H]3C[C@H]43)nc2c1 [Example 150, 2-((3bS,4aR)-3-(difluoromethyl)-5,5-difluoro-3b,4,4a,5-tetrahydro-1H-cyclopropa[3,4]cyclopenta[1,2-c]pyrazol-1-yl)-N-((S)-2-(3,5-difluorophenyl)-1-(7-(4-fluoro-2-methylphenyl)-3-(4-(morpholinosulfonyl)phenyl)-4-oxo-3,4-dihydroquinazolin-2-yl)ethyl)acetamide]
[1]
  EC50: 11 nM
[2]
  CC50 at 4 day: > 500 nM

## Cn1nc(NS(C)(=O)=O)c2c(Cl)ccc(-n3c([C@H](Cc4cc(F)cc(F)c4)NC(=O)Cn4nc(C(F)F)cc4C(F)F)nc4cc(-c5ccccc5F)ccc4c3=O)c21 [Example 154, (S)-2-(3,5-bis(difluoromethyl)-1H-pyrazol-1-yl)-N-(1-(3-(4-chloro-1-methyl-3-(methylsulfonamido)-1H-indazol-7-yl)-7-(2-fluorophenyl)-4-oxo-3,4-dihydroquinazolin-2-yl)-2-(3,5-difluorophenyl)ethyl)acetamide]
[1]
  EC50: 4.8 nM
[2]
  CC50 at 4 day: > 1000 nM

## CC(C)n1ccc(CC(=O)N[C@@H](Cc2cc(F)cc(F)c2)c2nc3cc(-c4ccccc4F)ccc3c(=O)n2-c2ccc(Cl)c3c(NS(C)(=O)=O)nn(C)c23)n1 [Example 155, (S)-N-(1-(3-(4-chloro-1-methyl-3-(methylsulfonamido)-1H-indazol-7-yl)-7-(2-fluorophenyl)-4-oxo-3,4-dihydroquinazolin-2-yl)-2-(3,5-difluorophenyl)ethyl)-2-(1-isopropyl-1H-pyrazol-3-yl)acetamide]
[1]
  EC50: 0.76 nM
[2]
  CC50 at 4 day: > 1000 nM

## COc1ccc(-c2ccc3c(=O)n(-c4ccc(Cl)c5c(NS(C)(=O)=O)nn(C)c45)c([C@H](Cc4cc(F)cc(F)c4)NC(=O)Cn4nc(C(F)F)c5c4C(F)(F)[C@@H]4C[C@H]54)nc3c2)cc1 [Example 156, N-((S)-1-(3-(4-chloro-1-methyl-3-(methylsulfonamido)-1H-indazol-7-yl)-7-(4-methoxyphenyl)-4-oxo-3,4-dihydroquinazolin-2-yl)-2-(3,5-difluorophenyl)ethyl)-2-((3bS,4aR)-3-(difluoromethyl)-5,5-difluoro-3b,4,4a,5-tetrahydro-1H-cyclopropa[3,4]cyclopenta[1,2-c]pyrazol-1-yl)acetamide]
[1]
  EC50: 0.79 nM
[2]
  CC50 at 4 day: > 500 nM

## Cc1ncc(-c2ccc3c(=O)n(-c4ccc(Cl)c5c(NS(=O)(=O)C6CC6)nn(CC(F)F)c45)c([C@H](Cc4cc(F)cc(F)c4)NC(=O)Cn4nc(C(F)F)c5c4C(F)(F)[C@@H]4C[C@H]54)nc3c2)cn1 [Example 157, N-((S)-1-(3-(4-chloro-3-(cyclopropanesulfonamido)-1-(2,2-difluoroethyl)-1H-indazol-7-yl)-7-(2-methylpyrimidin-5-yl)-4-oxo-3,4-dihydroquinazolin-2-yl)-2-(3,5-difluorophenyl)ethyl)-2-((3bS,4aR)-3-(difluoromethyl)-5,5-difluoro-3b,4,4a,5-tetrahydro-1H-cyclopropa[3,4]cyclopenta[1,2-c]pyrazol-1-yl)acetamide]
[1]
  EC50: 0.06 nM
[2]
  CC50 at 4 day: > 500 nM

## Cc1cccc(-c2ccc3c(=O)n(-c4ccc(Cl)c5c(NS(=O)(=O)C6CC6)nn(CC(F)F)c45)c([C@H](Cc4cc(F)cc(F)c4)NC(=O)Cn4nc(C(F)F)c5c4C(F)(F)[C@@H]4C[C@H]54)nc3c2)n1 [Example 158, N-((S)-1-(3-(4-chloro-3-(cyclopropanesulfonamido)-1-(2,2-difluoroethyl)-1H-indazol-7-yl)-7-(6-methylpyridin-2-yl)-4-oxo-3,4-dihydroquinazolin-2-yl)-2-(3,5-difluorophenyl)ethyl)-2-((3bS,4aR)-3-(difluoromethyl)-5,5-difluoro-3b,4,4a,5-tetrahydro-1H-cyclopropa[3,4]cyclopenta[1,2-c]pyrazol-1-yl)acetamide]
[1]
  EC50: 0.14 nM
[2]
  CC50 at 4 day: > 500 nM
